Data on 13 compounds can be found in patent US11130780B2, “Inhibitors of growth factor activation enzymes” (Washington University, priority 2015, dated 2021).

What all share (format): biochemical
The target of one assay is T1, matriptase (Homo sapiens, UniProt Q9Y5Y6).
T1 construct: Charles Craik, UCSF (obtained from another laboratory)
T1 sequence (Q9Y5Y6 615-855 limits assumed): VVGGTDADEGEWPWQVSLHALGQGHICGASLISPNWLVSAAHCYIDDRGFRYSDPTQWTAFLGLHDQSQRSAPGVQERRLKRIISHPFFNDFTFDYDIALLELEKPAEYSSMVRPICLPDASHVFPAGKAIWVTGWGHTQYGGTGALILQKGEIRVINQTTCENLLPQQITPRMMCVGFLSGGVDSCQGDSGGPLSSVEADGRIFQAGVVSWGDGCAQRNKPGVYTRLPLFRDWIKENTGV
In words: Fluorescent kinetic enzyme inhibitor assay of matriptase. As to conditions: Fluorogenic Assay. On the procedure: (§1) Inhibitors (11-pt serial dilutions, 0-20 μM final concentration in reaction) were serially diluted in DMSO (2% DMSO final concentration) and then mixed with either recombinant serine protease domain of HGFA [Z. Han, P. K. Harris, D. E. Jones, R. Chugani, T. Kim, M. Agarwal, W. Shen, S. A. Wildman, J. W. Janetka, Acs Med Chem Lett 2014, 5, 1219-1224], matriptase (Charles Craik, UCSF) or hepsin* (#4776-SE-010, R&D Systems, Minneapolis, Minn.) in black 384 well plates (Corning #3575. Corning, N.Y.). […] The final substrate concentrations for all assays were at the Km for the respective enzymes. Changes in fluorescence (excitation at 380 nm and emission at 460 nm) were measured at room temperature over time in a Biotek Synergy 2 plate reader (Winnoski, Vt.). Using GraphPad Prism version 6.04 software program, (GraphPad Software, San Diego, Calif., www.graphpad.com), a four parameter curve fit was used to determine the inhibitor IC50s from a plot of the mean reaction velocity versus the inhibitor concentration. The IC50 values represent the average of three separate experimental determinations.

In the next assay the target is T2, HGFA (Homo sapiens, UniProt Q04756).
T2 construct: His6 tag (N); seven amino acid spacer and seven amino acid TEV cleavage site (N); Honey Bee melittin signal peptide (N); made in house; host or cells: High 5 insect cells (baculovirus; virus raised in Sf9)
T2 sequence (Q04756 373-655): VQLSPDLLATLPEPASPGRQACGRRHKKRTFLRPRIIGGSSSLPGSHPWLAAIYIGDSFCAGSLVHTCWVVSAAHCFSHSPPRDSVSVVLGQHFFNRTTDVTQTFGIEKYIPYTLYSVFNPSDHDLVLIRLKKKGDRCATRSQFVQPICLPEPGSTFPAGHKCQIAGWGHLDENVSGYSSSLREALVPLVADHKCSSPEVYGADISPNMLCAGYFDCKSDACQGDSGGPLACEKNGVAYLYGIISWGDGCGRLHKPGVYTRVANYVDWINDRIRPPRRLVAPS
In words: Fluorescent kinetic enzyme inhibitor assay of HGFA. To be noted: read-out: HGFA Ki.
From the text: Using primers identified as SEQ ID NO 1, SEQ ID NO 2, and standard PCR protocols, the nucleotide sequence encoding amino acids 373-655 of HGFA was synthesized. This PCR product was cloned into the SfoI-HindIII sites of a modified pFastBac HT baculovirus expression vector (Addgene, Cambridge, Mass.). This vector contains a six amino His tag followed by a seven amino spacer and a seven amino acid TEV cleavage site placed immediately downstream of the Honey Bee melittin signal peptide. Using a modified Bac to Bac Expression System (Life Technologies, Carlsbad, Calif.), recombinant HGFA bacmids were obtained by transforming DH10Bac Escherichia coli cells. To obtain HGFA containing baculovirus, purified bacmids were transfected into Sf9 insect cells. After 5 days in culture at 27° C., media was harvested from transfected Sf9 cells. This media was used to prepare baculovirus infected insect cells (BIICs). These BIIICs were used to infect High 5 insect cells. Four days post infection, media was harvested and recombinant protein prepared as follows. Media was chilled to 4° C. and spun at 4000×g for 20 minutes (all subsequent steps were performed at 4° C. unless noted). Clarified media was passed first through a Whatman GF/B 1 um (#1821-047, GE Healthcare Life Sciences, Piscataway, N.J.) and then a 0.22 um PES membrane (#99955, TPP Techno Plastic Products AG, Trasadingen, Switzerland) and then concentrated using a Pall Centramate tangential flow system and Centramate T-series Cassette (#OS010T12, Pall Corporation, Port Washington, N.Y.). Concentrated media was then buffer exchanged in two steps, five volumes of 50 mM Na-phosphate, 500 mM NaCl, pH 6.2, followed by five volumes of 50 mM Na-phosphate, 500 mM NaCl, pH 7.5. The concentrated and buffered exchanged insect cell media was again filtered as above and made 25 mM imidazole (#1202, Sigma-Aldrich, St. Louis, Mo.) and was mixed with nickel agarose beads (#H-321-25, Gold Biotechnology, Inc., St. Louis Mo.). After mixing this slurry for 12 hours, nickel agarose beads were allowed to settle by gravity and then loaded into a column. Beads were washed with buffer (25 mM Na-phosphate, 500 mM NaCl, 25 mM imidazole, pH 8) and the bound protein eluted using (25 mM Na-phosphate, 500 mM NaCl, 250 mM imidazole, pH 8). Using a Amicon Ultra-4 Centrifugal filters (#UFC801008, Merck Millipore, Ltd., Tullagreen, Ireland), peak protein fractions were concentrated and run over a Superdex-200 10/300 GL column (GE Healthcare Life Sciences, Piscataway, N.J.) in 10 mM Tris, 200 mM NaCl, 0.2 mM EDTA, pH 8. HGFA containing fractions were pooled, concentrated, made 50% glycerol, and stored at minus 20° C. Protein was quantitated using a modified Lowry protein assay (#500-0006, Bio-Rad Laboratories, Hercules, Calif.).
as §1

Another assay has as its target T3, hepsin (Homo sapiens, UniProt P05981).
T3 construct: purchased R&D Systems 4776-SE-010
In words: Fluorescent kinetic enzyme inhibitor assay of hepsin. As to conditions: Fluorogenic Assay, read-out: Hepsin Ki. On the procedure:
as §1

The target in the next assay is thrombin (Homo sapiens, UniProt P00734). In words: Chromogenic kinetic enzyme assay of thrombin. As to conditions: for pKi: read-out: Thrombin Ki. On the procedure:
Inhibitors (11-pt serial dilutions, 0-20 μM final concentration) were serially diluted in DMSO (2% DMSO final concentration) and then mixed with recombinant thrombin (0.15 nM final concentration) or Factor Xa (0.35 nM final concentration) in TNC buffer (25 mM Tris, 150 mM NaCl, 5 mM CaCl2, 0.01% TRITON X-100, pH 8) using clear 384 well plates. […] Changes in absorbance at 405 nm were measured over time in a Biotek Synergy 2 plate (Winnoski, Vt.). Using GraphPad Prism version 6.04 software program, (GraphPad Software, San Diego, Calif., www.graphpad.com), a four parameter curve fit was used to determine the inhibitor IC50s from a plot of the mean reaction velocity versus the inhibitor concentration. Ki values were calculated from the IC50 values using the Cheng and Prusoff equation (Ki=IC50/(1+[S]/Km).

pKi: −log10 of the molar value. “And” between values parts separate entries of the source, which are not always exact repeats. Equal values may be shown once. Read-outs that look alike come from different tables or passages of the source. Where only a bound is given, the exact number is not on record here.

T3 sequence (P05981 163-417 limits assumed): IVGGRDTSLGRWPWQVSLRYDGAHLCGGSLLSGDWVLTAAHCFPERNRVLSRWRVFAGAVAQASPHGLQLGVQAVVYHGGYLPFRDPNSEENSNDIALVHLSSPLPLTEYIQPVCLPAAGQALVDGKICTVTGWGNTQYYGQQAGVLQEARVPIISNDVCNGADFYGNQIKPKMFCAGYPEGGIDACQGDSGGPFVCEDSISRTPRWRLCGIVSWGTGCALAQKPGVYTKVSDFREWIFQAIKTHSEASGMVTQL
T3 sequence (P05981 45-162 partner limits assumed): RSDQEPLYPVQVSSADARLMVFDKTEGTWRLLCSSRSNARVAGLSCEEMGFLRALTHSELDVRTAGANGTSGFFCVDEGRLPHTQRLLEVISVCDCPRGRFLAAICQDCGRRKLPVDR

With `N=C(N)c1cccc(C[C@H](NS(=O)(=O)c2ccc3ccccc3c2)C(=O)N2CCN(C(=O)NCc3ccccc3)CC2)c1` [Compound 17a, (S)—N-Benzyl-4-(3-(3-carbamimidoylphenyl)-2-(naphthalene-2-sulfonamido)propanoyl)piperazine-1-carboxamide], the pKi (commonly −log10 of the Ki, conventionally taken in molar units) is 5.69 and 5.59 on matriptase (Table 9.1); 4.85 on HGFA (Table 9.1, Fluorogenic Assay, listed as FMF-1-279-003); 4.85 on HGFA (Table 9.1, Fluorogenic Assay); 6.00 and 5.98 at hepsin (Table 9.1).

`Cc1ccc(S(=O)(=O)N[C@@H](Cc2cccc(C(=N)N)c2)C(=O)N2CCC[C@H](NC(=O)OCc3ccccc3)C2)cc1` [Compound 18, Benzyl (S)-1-((S)-3-(3-carbamimidoylphenyl)-2-(4-methylphenylsulfonamido)propanoyl)piperidin-3-ylcarbamate]: the pKi is 6.00 at matriptase (Table 9.2); less than 4.30 on HGFA (Table 9.2, Fluorogenic Assay); 5.64 at hepsin (Table 9.2).

`Cc1ccc(S(=O)(=O)N[C@@H](Cc2cccc(C(=N)N)c2)C(=O)N2CCC(c3ccccc3)CC2)cc1` [Compound 25b, (S)-3-(2-(4-Methylphenylsulfonamido)-3-oxo-3-(4-phenylpiperidin-1-yl)propyl)benzimidamide]: the pKi at matriptase (Table 9.1) is 6.24; on HGFA (Table 9.1, Fluorogenic Assay), 4.70; on hepsin (Table 9.1), 5.32.

With `Cc1ccc(S(=O)(=O)N[C@@H](Cc2cccc(C(=N)N)c2)C(=O)N2CCCC(C(=O)NCCc3ccccc3)C2)cc1` (stereo partly drawn) [Compound 25c, 1-((S)-3-(3-Carbamimidoylphenyl)-2-(4-methylphenylsulfonamido)propanoyl)-N-phenethylpiperidine-3-carboxamide], the pKi at matriptase (Table 9.2) is 5.89; at HGFA (Table 9.2, Fluorogenic Assay) it was less than 4.30; on hepsin (Table 9.2), 6.17.

`CCCCCCNC(=O)N1CCN(C(=O)[C@H](Cc2cccc(C(=N)N)c2)NS(=O)(=O)c2ccc3ccccc3c2)CC1` [Compound 25d, (S)-4-(3-(3-Carbamimidoylphenyl)-2-(naphthalene-2-sulfonamido)propanoyl)-N-hexylpiperazine-1-carboxamide]: the pKi at matriptase (Table 9.1) was 4.83; on matriptase (Table 9.1, listed as FMF-1-278-003) it was 4.83; at HGFA (Table 9.1, Fluorogenic Assay), less than 4.30; on hepsin (Table 9.1) it was 5.89.

`N=C(N)c1cccc(C[C@H](NS(=O)(=O)c2ccc3ccccc3c2)C(=O)N2CCN(C(=O)c3csc4ccccc34)CC2)c1` [Compound 25e, (S)-3-(3-(4-(Benzo[b]thiophene-3-carbonyl)piperazin-1-yl)-2-(naphthalene-2-sulfonamido)-3-oxopropyl)benzimidamide]: the pKi at matriptase (Table 9.1) was 5.92; on HGFA (Table 9.1, Fluorogenic Assay), less than 4.30; at hepsin (Table 9.1) it was 5.43.

Turning to `N=C(N)c1cccc(C[C@H](NS(=O)(=O)c2ccc3ccccc3c2)C(=O)N2CCC[C@@H](NC(=O)OCc3ccccc3)C2)c1` [Compound 25f, Benzyl (R)-1-((S)-3-(3-carbamimidoylphenyl)-2-(naphthalene-2-sulfonamido)propanoyl)piperidin-3-ylcarbamate], the pKi on matriptase (Table 9.2) is 5.31; at HGFA (Table 9.2, Fluorogenic Assay) it was less than 4.30; on hepsin (Table 9.2), 5.55.

As to `N=C(N)c1cccc(C[C@H](NS(=O)(=O)c2ccc3ccccc3c2)C(=O)N2CCN(c3ccccc3)CC2)c1` [Compound 25g, (S)-3-(2-(Naphthalene-2-sulfonamido)-3-oxo-3-(4-phenylpiperazin-1-yl)propyl)benzimidamide], the pKi was 5.74 at matriptase (Table 9.1), 4.74 on HGFA and 5.15 on hepsin (Table 9.1).

`CC(C)c1cc(C(C)C)c(S(=O)(=O)N[C@@H](Cc2cccc(C(=N)N)c2)C(=O)N2CCN(c3ccccc3)CC2)c(C(C)C)c1` [Compound 27, (S)-3-(3-Oxo-3-(4-phenylpiperazin-1-yl)-2-((2,4,6-triisopropylphenyl)sulfonamido)propyl)benzimidamide]: the pKi at matriptase (Table 9.1) was 6.12; at HGFA, 4.65; on hepsin (Table 9.1) it was 5.13.

Take `CC(=O)N[C@@H](CCCCN)C(=O)N[C@@H](CCCNC(=N)N)C(=O)N[C@@H](CC(C)C)C(=O)N[C@@H](CCCNC(=N)N)C(=O)c1nc2ccc(C(=O)NCc3ccc(C(=O)O)cc3)cc2s1` [Compound 7164, Ac-KRLR(SEQ ID NO: 8)-kbt-Benzyl-3-COOH]: the pKi on thrombin (Table 6.2, headed Fluorogenic Assay) was 5.79.

Take `N=C(N)NCCC[C@H](NC(=O)[C@@H]1CCCCN1C(=O)[C@H](N)Cc1ccccc1)C(=O)Nc1ccc([N+](=O)[O-])cc1` [Compound S2238, D-Phe-Pip-Arg-pNA, reference compound]: the Km – broadly, the concentration of substrate that gives half-maximal velocity – at thrombin (read-out: Km of chromogenic substrate for thrombin) turned out to be 14.5 µM.

As to `Cc1nc(-c2cccc(C[C@H](NS(=O)(=O)c3ccc4ccccc4c3)C(=O)N3CCN(C(=O)NCc4ccccc4)CC3)c2)no1` [FMF-1-254-004], the pKi on matriptase (Table 9.3) is less than 5.00; at HGFA (Table 9.3, Fluorogenic Assay), less than 4.30; on hepsin (Table 9.3), less than 5.00.

As for `CC(C)c1cc(C(C)C)c(S(=O)(=O)N[C@@H](Cc2cccc(C(=N)N)c2)C(=O)N2CCN(C(=O)C3CCN(C(=N)N)CC3)CC2)c(C(C)C)c1` [JWJ-I-135], the pKi is 4.75 on HGFA (Table 9.1, Fluorogenic Assay) and less than 5.70 on thrombin (Table 9.4).
